# From patent US20090247475A1, “METHODS AND COMPOSITIONS RELATING TO PHARMACOGENETICS OF DIFFERENT GENE VARIANTS IN THE CONTEXT OF IRINOTECAN-BASED THERAPIES” (The Regents of the University of California, priority 2004, published 2009)
# Where a chain is given by its changes, count along the chain named. Where two headings read alike, the source gives them in different places.
# Key:
# [1] = early single agent trials; fraction of patients; cited from earlier work
# [2] = human, in vivo
# Source text: (§1) Sixty-four adults (48 Caucasians, 10 African-Americans, 4 Hispanics, and 2 others) with refractory solid tumors took part in the pharmacogenetic study.
# (§2) After visual inspection of the graphical plots of AUC and ratios stratified by genotype, t test analysis was applied to the data showing the possible presence of an inter-genotype difference in irinotecan pharmacokinetics.
# (§3) Two SNPs in SLCO1B1 [*1b (388A>G) and *5 (521T>C)] were also genotyped.
# [3] = Irinotecan pharmacokinetics (AUC, noncompartmental analysis) in cancer patients stratified by genotype
# Source text: as §1, §2, §3
# [4] = molecular target: T1, OATP1B1 (Homo sapiens, UniProt Q9Y6L6); details: cited from earlier work
# T1 sequence (Q9Y6L6 1-691): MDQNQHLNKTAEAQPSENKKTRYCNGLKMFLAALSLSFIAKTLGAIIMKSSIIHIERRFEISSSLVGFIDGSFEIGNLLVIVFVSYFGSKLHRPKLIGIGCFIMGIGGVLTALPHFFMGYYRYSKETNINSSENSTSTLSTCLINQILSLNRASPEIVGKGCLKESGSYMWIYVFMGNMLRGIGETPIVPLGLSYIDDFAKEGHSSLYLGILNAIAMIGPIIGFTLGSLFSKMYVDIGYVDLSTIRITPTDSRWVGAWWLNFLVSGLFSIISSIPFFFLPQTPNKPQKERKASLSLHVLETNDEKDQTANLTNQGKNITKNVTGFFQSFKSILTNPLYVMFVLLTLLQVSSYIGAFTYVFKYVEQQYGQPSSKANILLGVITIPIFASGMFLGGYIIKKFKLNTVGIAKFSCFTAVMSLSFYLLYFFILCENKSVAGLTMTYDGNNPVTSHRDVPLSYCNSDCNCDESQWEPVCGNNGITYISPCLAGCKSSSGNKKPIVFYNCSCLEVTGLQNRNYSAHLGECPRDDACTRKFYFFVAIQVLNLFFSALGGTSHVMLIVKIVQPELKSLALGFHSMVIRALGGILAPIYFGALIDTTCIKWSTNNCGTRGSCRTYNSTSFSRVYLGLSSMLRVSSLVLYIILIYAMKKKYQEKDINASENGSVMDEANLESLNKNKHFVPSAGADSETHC
# [5] = molecular target: T2, SLCO1B1*15 (N130D and V174A) (Homo sapiens, UniProt Q9Y6L6, N130D/V174A); details: among the variants examined; cited from earlier work
# T2 sequence (Q9Y6L6 1-691 N130D/V174A): T1 sequence (Q9Y6L6 1-691) with N130D, V174A
# [6] = cited from earlier work
# [7] = OATP1B1*1a and three common variants
smiles,measurement,setting,value
"CCc1c2c(nc3ccc(OC(=O)N4CCC(N5CCCCC5)CC4)cc13)-c1cc3c(c(=O)n1C2)COC(=O)[C@]3(O)CC [irinotecan, Irinotecan]",Frequency of grade 3-4 diarrhea,[1],about one third
same,Effect of SLCO1B1*5 variant on patient exposure (AUC),[2],increase in irinotecan AUC
same,Effect of SLCO1B1*1b allele on plasma disposition,"[3]; human, in vivo",no effect
same,Transport by OATP1B1,[4]; [7],not transported
"CCc1c2c(nc3ccc(O)cc13)-c1cc3c(c(=O)n1C2)COC(=O)[C@]3(O)CC [SN-38, 7-ethyl-10-hydroxycamptothecin]",Transport activity of SLCO1B1*15 variant,[5],decreased transport activities
same,AUC in ABCC2 3972 TT patients compared to CT and CC patients,"[3]; 350 mg/m^2 IV irinotecan, SN-38 and SN-38G analysed in 6/6 and 6/7 UGT1A1 genotype patients",No significant correlation
same,Transport by OATP1B1,[4]; [7],transport activity for SN-38 was observed
same,Inhibition of SLCO1B1-mediated uptake of [(3)H]estrone-3-sulfate,[4],significant inhibitory effect
CC[C@H](C)C(=O)O[C@H]1C[C@H](O)C=C2C=C[C@H](C)[C@H](CC[C@@H](O)C[C@@H](O)CC(=O)O)[C@H]21 [pravastatin],Mean pravastatin AUC0-12 higher compared to non-carriers,[6]; heterozygous carriers of *15B,93%
same,Mean pravastatin AUC0-12 higher compared to non-carriers,[6]; heterozygous carriers of *17,130%
same,Mean pravastatin AUC0-12 higher compared to reference genotype,[6]; subjects with SLCO1B1 -11187GA genotype,98%
same,Transport activity of SLCO1B1*15 variant,[5],decreased transport activities
"CCc1c2c(nc3ccc(O[C@@H]4O[C@H](C(=O)O)[C@@H](O)[C@H](O)[C@H]4O)cc13)-c1cc3c(c(=O)n1C2)COC(=O)[C@]3(O)CC [SN-38G, 10O-glucuronyl-SN-38]",Effect of SLCO1B1*5 variant on patient exposure (AUC),[2],not affected
same,Transport by OATP1B1,[4],not transported
C[C@]12CC[C@@H]3c4ccc(OS(=O)(=O)O)cc4CC[C@H]3[C@@H]1CCC2=O [estrone-3-sulfate],Transport activity of SLCO1B1*15 variant,[5],decreased transport activities
